Results as given in BindingDB's records for patent US20240018157 (Schrödinger, 2024).

Biological target: T1, Mucosa-associated lymphoid tissue lymphoma translocation protein 1 (Homo sapiens, UniProt Q9UDY8)
T1 sequence (Q9UDY8 whole entry): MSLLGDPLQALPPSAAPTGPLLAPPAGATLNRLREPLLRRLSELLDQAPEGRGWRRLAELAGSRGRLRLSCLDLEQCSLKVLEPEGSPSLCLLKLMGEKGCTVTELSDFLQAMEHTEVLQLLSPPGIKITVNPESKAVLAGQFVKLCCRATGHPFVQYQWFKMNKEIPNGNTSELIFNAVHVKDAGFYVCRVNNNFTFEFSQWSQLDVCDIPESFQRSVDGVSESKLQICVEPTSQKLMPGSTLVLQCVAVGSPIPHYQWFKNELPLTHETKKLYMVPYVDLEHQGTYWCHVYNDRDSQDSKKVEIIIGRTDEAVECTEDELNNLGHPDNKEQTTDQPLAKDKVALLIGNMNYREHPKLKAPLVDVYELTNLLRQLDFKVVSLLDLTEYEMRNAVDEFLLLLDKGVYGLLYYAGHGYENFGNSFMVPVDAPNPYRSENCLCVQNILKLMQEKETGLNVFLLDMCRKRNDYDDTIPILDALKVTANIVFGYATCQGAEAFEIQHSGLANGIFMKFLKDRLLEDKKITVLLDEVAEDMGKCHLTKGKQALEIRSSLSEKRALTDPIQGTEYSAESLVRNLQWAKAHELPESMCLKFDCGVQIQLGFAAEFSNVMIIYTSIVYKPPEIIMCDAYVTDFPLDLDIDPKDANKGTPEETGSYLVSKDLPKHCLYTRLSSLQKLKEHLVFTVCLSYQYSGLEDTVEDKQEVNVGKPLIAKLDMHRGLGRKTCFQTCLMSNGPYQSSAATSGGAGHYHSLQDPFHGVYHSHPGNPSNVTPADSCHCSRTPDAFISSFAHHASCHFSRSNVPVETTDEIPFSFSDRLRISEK
Test: MALT1 Protease Assay 2
Description: Test compounds were dissolved in 100% DMSO at stock of 10 mM, with final DMSO concentration 0.1%. Test compounds were pre-incubated with MALT1 protein for 2 h at room temperature.

| IC50 [nM] | Compound |
| --- | --- |
| 10 to 100 | C[C@@]1(C2CC2)CN(C(=O)Nc2cnc(-n3nccn3)c(Cl)c2)c2cnc3cc(Cl)nn3c21 [US20240018157, Example 4] |
| < 10 | C[C@@]1(C(F)(F)F)CN(C(=O)Nc2cnc(-n3ncc(CO)n3)c(Cl)c2)c2cnc3cc(Cl)nn3c21 [US20240018157, Example 24] |
| < 10 | Cc1cc2ncc3c(n2n1)[C@](C)(C(F)(F)F)CN3C(=O)Nc1cnc(-n2nccn2)c(Cl)c1 [US20240018157, Example 32] |
| < 10 | C[C@@]1(C(F)(F)F)CN(C(=O)Nc2cnc(-n3nccn3)c(C(F)F)c2)c2cnc3cc(Cl)nn3c21 [US20240018157, Example 35] |
| < 10 | C[C@@]1(C(F)(F)F)CN(C(=O)Nc2cnc(-n3ccnn3)c(C(F)F)c2)c2cnc3cc(Cl)nn3c21 [US20240018157, Example 36] |
| < 10 | C[C@@]1(C(F)(F)F)CN(C(=O)Nc2cnc(-n3nccn3)c(Cl)c2)c2cnc3cc(F)nn3c21 [US20240018157, Example 39] |
| < 10 | C[C@@]1(C(F)(F)F)CN(C(=O)Nc2cnc(-n3cc(CO)cn3)c(Cl)c2)c2cnc3cc(Cl)nn3c21 [US20240018157, Example 57] |
| < 10 | C[C@@]1(C(F)(F)F)CN(C(=O)Nc2ccnc(C(F)F)c2)c2cnc3cc(Cl)nn3c21 [US20240018157, Example 60] |
| 10 to 100 | C[C@@]1(C(F)(F)F)CN(C(=O)Nc2cnnc(C(F)F)c2)c2cnc3cc(Cl)nn3c21 [US20240018157, Example 65] |
| < 10 | C[C@@]1(C(F)(F)F)CN(C(=O)Nc2cnc(-n3ncc([C@H](O)CO)n3)c(Cl)c2)c2cnc3cc(Cl)nn3c21 [US20240018157, Example 70] |
| < 10 | C[C@@]1(C(F)(F)F)CN(C(=O)Nc2cnc(-n3ncc([C@@H](O)CO)n3)c(Cl)c2)c2cnc3cc(Cl)nn3c21 [US20240018157, Example 71] |
| < 10 | C[C@H](O)c1cnn(-c2ncc(NC(=O)N3C[C@@](C)(C(F)(F)F)c4c3cnc3cc(Cl)nn43)cc2Cl)n1 [US20240018157, Example 76] |
| < 10 | C[C@@H](O)c1cnn(-c2ncc(NC(=O)N3C[C@@](C)(C(F)(F)F)c4c3cnc3cc(Cl)nn43)cc2Cl)n1 [US20240018157, Example 77] |
| < 10 | COCc1cnn(-c2ncc(NC(=O)N3C[C@@](C)(C(F)(F)F)c4c3cnc3cc(Cl)nn43)cc2Cl)n1 [US20240018157, Example 79] |
| < 10 | C[C@@]1(C(F)(F)F)CN(C(=O)Nc2cnc(-n3nccc3C#N)c(C#N)c2)c2cnc3cc(Cl)nn3c21 [US20240018157, Example 87] |
| < 10 | C[C@@]1(C(F)(F)F)CN(C(=O)Nc2cnc(-n3nccn3)c(C#N)c2)c2cnc3cc(F)nn3c21 [US20240018157, Example 91] |
| < 10 | COc1cnn(-c2ncc(NC(=O)N3C[C@@](C)(C(F)(F)F)c4c3cnc3cc(Cl)nn43)cc2Cl)n1 [US20240018157, Example 92] |
| < 10 | COC[C@@]1(C(F)(F)F)CN(C(=O)Nc2cnc(-n3nccn3)c(Cl)c2)c2cnc3cc(Cl)nn3c21 [US20240018157, Example 97] |
| 10 to 100 | COC[C@]1(C(F)(F)F)CN(C(=O)Nc2cnc(-n3nccn3)c(Cl)c2)c2cnc3cc(Cl)nn3c21 [US20240018157, Example 98] |
| < 10 | C[C@@]1(C(F)(F)F)CN(C(=O)Nc2cnc(-n3nccn3)c(C(F)F)c2)c2cnc3cc(F)nn3c21 [US20240018157, Example 104] |
| 100 to 1000 | C[C@]1(C(F)(F)F)CN(C(=O)Nc2cnc(-n3nccn3)c(C(F)F)c2)c2cnc3cc(F)nn3c21 [US20240018157, Example 105] |
| > 1000 | CN(C)C(=O)COc1ncc(NC(=O)N2C[C@@](C)(C(F)(F)F)c3c2cnc2cc(Cl)nn32)cc1C(F)F [US20240018157, Example 108] |
| < 10 | C[S@+]([O-])c1ccc(NC(=O)N2C[C@@](C)(C(F)(F)F)c3c2cnc2cc(Cl)nn32)cc1C(F)F [US20240018157, Example 116] |
| 100 to 1000 | C[S@@+]([O-])c1ccc(NC(=O)N2C[C@@](C)(C(F)(F)F)c3c2cnc2cc(Cl)nn32)cc1C(F)F [US20240018157, Example 117] |
| < 10 | CN(C)C(=O)c1ncc(NC(=O)N2C[C@@](C)(C(F)(F)F)c3c2cnc2cc(Cl)nn32)cc1C(F)F [US20240018157, Example 122] |
| > 1000 | Cc1cc(NC(=O)N2C[C@](C)(C(F)(F)F)c3c2cnc2cc(F)nn32)cnc1-n1nccn1 [US20240018157, Example 124] |
| < 10 | Cc1cc(NC(=O)N2C[C@@](C)(C(F)(F)F)c3c2cnc2cc(F)nn32)cnc1-n1nccn1 [US20240018157, Example 125] |
| < 10 | C[C@H](O)c1cnn(-c2ncc(NC(=O)N3C[C@@](C)(C(F)(F)F)c4c3cnc3cc(Cl)nn43)cc2C(F)F)n1 [US20240018157, Example 126] |

Further lines, the compound ahead of its results:

| Compound | IC50 [nM] |
| --- | --- |
| CC1(C)CN(C(=O)Nc2cnc(-n3nccn3)c(Cl)c2)c2cnc3cc(Cl)nn3c21 [US20240018157, Example 1] | 10 to 100 |
| COc1ncc(NC(=O)N2C[C@@](C)(C(F)(F)F)c3c2cnc2cc(Cl)nn32)cc1Cl [US20240018157, Example 18] | < 10 |
| C[C@@]1(C(F)(F)F)CN(C(=O)Nc2ccnc(C(F)(F)F)c2)c2cnc3cc(Cl)nn3c21 [US20240018157, Example 27] | < 10 |
| CN(C)Cc1cnn(-c2ncc(NC(=O)N3C[C@@](C)(C(F)(F)F)c4c3cnc3cc(Cl)nn43)cc2Cl)n1 [US20240018157, Example 29] | 10 to 100 |
| C[C@@]1(C(F)(F)F)CN(C(=O)N[C@H]2CCCC(F)(F)C2)c2cnc3cc(Cl)nn3c21 [US20240018157, Example 53] | 100 to 1000 |
| C[C@@]1(C(F)(F)F)CN(C(=O)Nc2cnc([C@H](O)CO)c(Cl)c2)c2cnc3cc(Cl)nn3c21 [US20240018157, Example 55] | 10 to 100 |
| C[C@@]1(C(F)(F)F)CN(C(=O)Nc2cnc([C@@H](O)CO)c(Cl)c2)c2cnc3cc(Cl)nn3c21 [US20240018157, Example 56] | 100 to 1000 |
| COc1c(Cl)cc(NC(=O)N2C[C@@](C)(C(F)(F)F)c3c2cnc2cc(Cl)nn32)nc1O[C@H]1CCNC1 [US20240018157, Example 63] | < 10 |
| COc1cnc(C(F)(F)F)cc1NC(=O)N1C[C@@](C)(C(F)(F)F)c2c1cnc1cc(Cl)nn21 [US20240018157, Example 66] | < 10 |
| C[C@@]1(C(F)(F)F)CN(C(=O)Nc2cnc(C3(O)CC3)c(Cl)c2)c2cnc3cc(Cl)nn3c21 [US20240018157, Example 67] | 100 to 1000 |
| C[C@H](O)c1cc(NC(=O)N2C[C@@](C)(C(F)(F)F)c3c2cnc2cc(Cl)nn32)cc(C(F)(F)F)n1 [US20240018157, Example 68] | 10 to 100 |
| C[C@@H](O)c1cc(NC(=O)N2C[C@@](C)(C(F)(F)F)c3c2cnc2cc(Cl)nn32)cc(C(F)(F)F)n1 [US20240018157, Example 69] | 10 to 100 |
| C[C@@H](O)COc1ncc(NC(=O)N2C[C@@](C)(C(F)(F)F)c3c2cnc2cc(Cl)nn32)cc1Cl [US20240018157, Example 74] | 10 to 100 |
| C[C@@]1(C(F)(F)F)CN(C(=O)Nc2cc(O[C@H]3CCNC3)nc(C(F)(F)F)c2)c2cnc3cc(Cl)nn3c21 [US20240018157, Example 75] | 10 to 100 |
| C[C@@]1(C(F)(F)F)CN(C(=O)Nc2cc(N=S(C)(C)=O)nc(C(F)(F)F)c2)c2cnc3cc(Cl)nn3c21 [US20240018157, Example 83] | < 10 |
| C[C@@]1(C(F)(F)F)CN(C(=O)Nc2cnc(N=S(C)(C)=O)c(Cl)c2)c2cnc3cc(Cl)nn3c21 [US20240018157, Example 85] | < 10 |
| C[C@@]1(C(F)(F)F)CN(C(=O)Nc2ccnc(C(F)F)c2)c2cnc3cc(F)nn3c21 [US20240018157, Example 88] | 10 to 100 |
| C[C@]1(C(F)(F)F)CN(C(=O)Nc2ccnc(C(F)F)c2)c2cnc3cc(F)nn3c21 [US20240018157, Example 89] | 100 to 1000 |
| CCOc1cc(NC(=O)N2C[C@@](C)(C(F)(F)F)c3c2cnc2cc(Cl)nn32)cn(C(F)F)c1=O [US20240018157, Example 93] | 10 to 100 |
| C[C@@]1(C(F)(F)F)CN(C(=O)Nc2cnn(S(C)(=O)=O)c2)c2cnc3cc(Cl)nn3c21 [US20240018157, Example 94] | 100 to 1000 |
| C[C@@]1(C(F)(F)F)CN(C(=O)Nc2cc(C(F)F)no2)c2cnc3cc(Cl)nn3c21 [US20240018157, Example 103] | 100 to 1000 |
| C[C@@]1(C(F)(F)F)CN(C(=O)Nc2cnnc(C(F)F)c2)c2cnc3cc(F)nn3c21 [US20240018157, Example 114] | > 1000 |
| C[C@]1(C(F)(F)F)CN(C(=O)Nc2cnnc(C(F)F)c2)c2cnc3cc(F)nn3c21 [US20240018157, Example 115] | 10 to 100 |
| Cc1cn2ncc3c(c2n1)[C@](C)(C(F)(F)F)CN3C(=O)Nc1cnnc(C(F)F)c1 [US20240018157, Example 119] | 10 to 100 |
| Cc1cn2ncc3c(c2n1)[C@@](C)(C(F)(F)F)CN3C(=O)Nc1cnnc(C(F)F)c1 [US20240018157, Example 120] | > 1000 |
